Assay results published in ChEMBL document CHEMBL1129603, “Synthesis and biological activity of metabolites of the antidiabetic, antihyperglycemic agent pioglitazone” (1996).

Organism: Mus musculus
Test: Compound was evaluated for Antihyperglycemic activity in KKAy mice, glucose level for the treated group (T) over the anti-hyperglycaemic activity
Type: functional

Structure (SMILES) | T/C
CC(=O)c1ccc(CCOc2ccc(CC3SC(=O)NC3=O)cc2)nc1 (stereo unspecified) | 0.74
CCc1ccc(C(O)COc2ccc(CC3SC(=O)NC3=O)cc2)nc1 (stereo unspecified) | 0.78
O=C(O)Cc1ccc(CCOc2ccc(CC3SC(=O)NC3=O)cc2)nc1 (stereo unspecified) | 0.91
CC(O)c1ccc(CCOc2ccc(CC3SC(=O)NC3=O)cc2)nc1 (stereo unspecified) [LERIGLITAZONE] | 0.74
CCc1ccc(C(=O)COc2ccc(CC3SC(=O)NC3=O)cc2)nc1 (stereo unspecified) [MITOGLITAZONE] | 0.39
CCc1ccc(CCOc2ccc(CC3SC(=O)NC3=O)cc2)nc1 (stereo unspecified) [PIOGLITAZONE] | 0.49
